Results taken from US10597388B2, “Pyridazinone herbicides” (FMC CORPORATION, priority 2014, dated 2020).

Tests used:
Assay type in all cases: in vivo
[1] = test system: barnyardgrass (Echinochloa crus-galli); assay: Test A greenhouse herbicide test, pre- and postemergence
How it was run: (§1)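 Visual injury ratings, 0 (no effect) to 100 (complete control), versus untreated plants after roughly 10 d in a greenhouse. Compounds, formulated in a surfactant-containing non-phytotoxic solvent, were sprayed on loam–sand soil after sowing (pre) or on one- to two-leaf plants 2–10 cm tall (post).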

corn (Zea mays) = assay: as above; settings: Postemergence
How it was run: as §1

[2] = test system: foxtail, giant (giant foxtail, Setaria faberii); assay: as above
How it was run: as §1

kochia (Kochia scoparia) = assay: as above
How it was run: as §1

[3] = test system: pigweed (Amaranthus retroflexus); assay: as above
How it was run: as §1

[4] = test system: ragweed (common ragweed, Ambrosia elatior); assay: as above
How it was run: as §1

[5] = test system: ryegrass, Italian (Italian ryegrass, Lolium multiflorum); assay: as above
How it was run: as §1

[6] = test system: wheat (Triticum aestivum); assay: as above; settings: Postemergence
How it was run: as §1

[7] = test system: lambsquarters (Chenopodium album); assay: Test C greenhouse herbicide test, pre- and postemergence
How it was run: (§2)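 Visual 0–100 injury score (100 = complete control) taken against untreated controls after 13–15 d in greenhouse. Test chemicals, formulated in solvent plus surfactant, applied preemergence to seeds in loam–sand soil or postemergence to 1- to 4-leaf plants (2–18 cm).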

[8] = test system: nutsedge, yellow (yellow nutsedge, Cyperus esculentus); assay: as above
How it was run: as §2

[9] = test system: ryegrass, Italian (Italian ryegrass, Lolium multiflorum); assay: as above
How it was run: as §2

[10] = Postemergence, 125 g ai/ha, 0 to 100 scale, 0 no effect, 100 complete control
[11] = Postemergence, 500 g ai/ha, visual rating after approx. 10 d, 0 to 100 scale (0 no effect, 100 complete control)
[12] = Preemergence, 125 g ai/ha, visual injury rating, 0 to 100 scale (0 no effect, 100 complete control), approx. 10 d
[13] = Preemergence, 500 g ai/ha, 0 to 100 scale where 0 is no effect and 100 is complete control
[14] = 125 g ai/ha, 0 to 100 scale, 0 no effect, 100 complete control
[15] = 500 g ai/ha, visual rating after approx. 10 d, 0 to 100 scale (0 no effect, 100 complete control)
[16] = Postemergence, 31 g ai/ha, scale 0 to 100 (0 no effect, 100 complete control)
[17] = Postemergence, 62 g ai/ha, 0 to 100 scale (0 no effect, 100 complete control)
[18] = Postemergence, 250 g ai/ha, scale 0 to 100, 0 no effect, 100 complete control, 13 to 15 d
[19] = Preemergence, 31 g ai/ha, scale 0 to 100, 0 is no effect, 100 is complete control
[20] = Preemergence, 62 g ai/ha, scale 0 to 100, 0 is no effect, 100 is complete control
[21] = Preemergence, 125 g ai/ha, scale 0 to 100, 0 is no effect, 100 is complete control
[22] = Preemergence, 250 g ai/ha, scale 0 to 100 (0 no effect, 100 complete control)
[23] = postemergence, 125 g ai/ha, scale 0 to 100, 0 no effect, 100 complete control

CC(=O)Oc1c(C)nn(C)c(=O)c1-c1c(C)cc(C)c2ccccc12 [Compound 153]
Plant response rating, Barnyardgrass [1, 10]: 90 | Plant response rating, Barnyardgrass [1, 11]: 90 | Plant response rating, Barnyardgrass [1, 12]: 100 | Plant response rating, Barnyardgrass [1, 13]: 100 | Plant response rating, Corn (corn (Zea mays); [14]): 0 | Plant response rating, Corn (corn (Zea mays); [15]): 80 | Plant response rating, Foxtail, Giant [2, 10]: 90 | Plant response rating, Foxtail, Giant [2, 11]: 90 | Plant response rating, Foxtail, Giant [2, 12]: 100 | Plant response rating, Foxtail, Giant [2, 13]: 100 | Plant response rating, Kochia (kochia (Kochia scoparia); [10]): 40 | Plant response rating, Kochia (kochia (Kochia scoparia); [11]): 90 | Plant response rating, Kochia (kochia (Kochia scoparia); [12]): 80 | Plant response rating, Kochia (kochia (Kochia scoparia); [13]): 90 | Plant response rating, Pigweed [3, 10]: 80 | Plant response rating, Pigweed [3, 11]: 100 | Plant response rating, Pigweed [3, 12]: 100 | Plant response rating, Pigweed [3, 13]: 100 | Plant response rating, Ragweed [4, 10]: 80 | Plant response rating, Ragweed [4, 11]: 90 | Plant response rating, Ragweed [4, 12]: 80 | Plant response rating, Ragweed [4, 13]: 90 | Plant response rating, Ryegrass, Italian [5, 10]: 100 | Plant response rating, Ryegrass, Italian [5, 11]: 100 | Plant response rating, Ryegrass, Italian [5, 12]: 100 | Plant response rating, Ryegrass, Italian [5, 13]: 100 | Plant response rating, Wheat [6, 14]: 0 | Plant response rating, Wheat [6, 15]: 30 | Plant response rating, Lambsquarters [7, 16]: 85 | Lambsquarters plant response rating [7, 17]: 90 | Plant response rating, Lambsquarters [7, 18]: 95 | Plant response rating, Lambsquarters [7, 19]: 95 | Plant response rating, Lambsquarters [7, 20]: 100 | Plant response rating, Lambsquarters [7, 21]: 100 | Lambsquarters plant response rating [7, 22]: 98 | Lambsquarters plant response rating [7, 23]: 95 | Plant response rating, Nutsedge, Yellow [8, 16]: 85 | Nutsedge, Yellow plant response rating [8, 17]: 90 | Plant response rating, Nutsedge, Yellow [8, 18]: 90 | Plant response rating, Nutsedge, Yellow [8, 19]: 80 | Plant response rating, Nutsedge, Yellow [8, 20]: 85 | Plant response rating, Nutsedge, Yellow [8, 21]: 80 | Nutsedge, Yellow plant response rating [8, 22]: 95 | Nutsedge, Yellow plant response rating [8, 23]: 95 | Plant response rating, Ryegrass, Italian [9, 16]: 90 | Ryegrass, Italian plant response rating [9, 17]: 95 | Plant response rating, Ryegrass, Italian [9, 18]: 95 | Plant response rating, Ryegrass, Italian [9, 19]: 90 | Plant response rating, Ryegrass, Italian [9, 20]: 95 | Plant response rating, Ryegrass, Italian [9, 21]: 90 | Ryegrass, Italian plant response rating [9, 22]: 95 | Ryegrass, Italian plant response rating [9, 23]: 95

Cc1cc(C)c2ccccc2c1-c1c(OS(C)(=O)=O)c(C)nn(C)c1=O [Compound 154]
Plant response rating, Barnyardgrass [1, 10]: 90 | Plant response rating, Barnyardgrass [1, 11]: 90 | Plant response rating, Barnyardgrass [1, 12]: 70 | Plant response rating, Barnyardgrass [1, 13]: 100 | Plant response rating, Corn (corn (Zea mays); [14]): 0 | Plant response rating, Corn (corn (Zea mays); [15]): 40 | Plant response rating, Foxtail, Giant [2, 10]: 90 | Plant response rating, Foxtail, Giant [2, 11]: 90 | Plant response rating, Foxtail, Giant [2, 12]: 90 | Plant response rating, Foxtail, Giant [2, 13]: 100 | Plant response rating, Kochia (kochia (Kochia scoparia); [10]): 20 | Plant response rating, Kochia (kochia (Kochia scoparia); [11]): 50 | Plant response rating, Kochia (kochia (Kochia scoparia); [12]): 0 | Plant response rating, Kochia (kochia (Kochia scoparia); [13]): 20 | Plant response rating, Pigweed [3, 10]: 90 | Plant response rating, Pigweed [3, 11]: 90 | Plant response rating, Pigweed [3, 12]: 100 | Plant response rating, Pigweed [3, 13]: 100 | Plant response rating, Ragweed [4, 10]: 80 | Plant response rating, Ragweed [4, 11]: 80 | Plant response rating, Ragweed [4, 12]: 80 | Plant response rating, Ragweed [4, 13]: 90 | Plant response rating, Ryegrass, Italian [5, 10]: 90 | Plant response rating, Ryegrass, Italian [5, 11]: 100 | Plant response rating, Ryegrass, Italian [5, 12]: 90 | Plant response rating, Ryegrass, Italian [5, 13]: 100 | Plant response rating, Wheat [6, 14]: 0 | Plant response rating, Wheat [6, 15]: 20 | Plant response rating, Lambsquarters [7, 16]: 90 | Lambsquarters plant response rating [7, 17]: 85 | Plant response rating, Lambsquarters [7, 18]: 95 | Plant response rating, Lambsquarters [7, 19]: 15 | Plant response rating, Lambsquarters [7, 20]: 60 | Plant response rating, Lambsquarters [7, 21]: 85 | Lambsquarters plant response rating [7, 22]: 95 | Lambsquarters plant response rating [7, 23]: 90 | Plant response rating, Nutsedge, Yellow [8, 16]: 70 | Nutsedge, Yellow plant response rating [8, 17]: 60 | Plant response rating, Nutsedge, Yellow [8, 18]: 80 | Plant response rating, Nutsedge, Yellow [8, 19]: 0 | Plant response rating, Nutsedge, Yellow [8, 20]: 20 | Plant response rating, Nutsedge, Yellow [8, 21]: 70 | Nutsedge, Yellow plant response rating [8, 22]: 85 | Nutsedge, Yellow plant response rating [8, 23]: 85 | Plant response rating, Ryegrass, Italian [9, 16]: 80 | Ryegrass, Italian plant response rating [9, 17]: 90 | Plant response rating, Ryegrass, Italian [9, 18]: 95 | Plant response rating, Ryegrass, Italian [9, 19]: 40 | Plant response rating, Ryegrass, Italian [9, 20]: 55 | Plant response rating, Ryegrass, Italian [9, 21]: 90 | Ryegrass, Italian plant response rating [9, 22]: 90 | Ryegrass, Italian plant response rating [9, 23]: 90
